Data reported in patent US20240293513A1, “USE OF MAZDUTIDE” (INNOVENT BIOLOGICS (SUZHOU) CO., LTD., priority 2021, published 2024).

How the values were obtained:
[1] = test system: healthy subjects; test: Single dose study in healthy subjects (18P-MC-OXAA), safety and tolerability; type: in vivo, human
Experimental: In another aspect of the present invention, provided is a pharmaceutical composition for reducing a uric acid level in a patient, comprising a compound of formula (I) or a pharmaceutically acceptable salt thereof, and at least one pharmaceutically acceptable carrier.
A single dose study in healthy subjects (18P-MC-OXAA): a single center, double-blind, randomized, placebo-controlled SAD study has been completed (ascending doses of 0.03 mg, 0.1 mg, 0.3 mg, 1.0 mg, 2.5 mg, and 5.0 mg), which mainly assessed the safety, tolerability, and PK/PD profile of mazdutide in healthy subjects.

[2] = Solubility of the investigational product; type: physicochemical; details: 20 mM tris(hydroxymethyl)aminomethane solutions and 150 mM NaCl solutions with pH 8.0
[3] = Stability of the drug substance; type: physicochemical; details: ≤−20° C.
[4] = test system: patients with obesity or overweight; test: Safety assessment in patients with obesity or overweight (12-week dose escalation); type: in vivo, human
Experimental: (§1) Mazdutide and placebo were both administered subcutaneously once weekly. The doses were prepared and administered by study nurses according to the manual instructions of the study drugs. • 1.5 Inclusion criteria
I. Subjects with obesity or overweight meeting all of the following criteria were included in the study: • 1. Aged 18-75 years (inclusive), male or female: • 2. For obesity, BMI≥28.0 kg/m^2: for overweight, 24≤ BMI<28.0 kg/m^2 with at least one of the following: i, increased appetite, intolerable hunger before meals, and increased food consumption: ii, comorbidity with one or more of pre-diabetes (impaired fasting glucose and/or impaired glucose tolerance), hypertension, dyslipidemia (see appendix 4 for reference criteria), and fatty liver (within 6 months before the screening); iii, comorbidity with weight-bearing joint pain: iv, obesity-related dyspnea or obstructive sleep apnea syndrome: • 3. Weight change<5% after at least 12 weeks of diet/exercise weight control at the time of screening
In this study, the enrollment of 36 patients with overweight or obesity having a weight change of less than 5% after at least 12 weeks of diet/exercise control was planned. Three cohorts were included in this double-blind study: cohort 1 (n=12), cohort 2 (n=12), and cohort 3 (n=12). Subjects in each cohort were randomized in a 2:1 ratio into the mazdutide treatment group (n=8) and the placebo group (n=4). The subcutaneous dosing regimens for mazdutide or placebo in cohort 1, cohort 2 and cohort 3, are described below (as shown in FIG. 1):
(§2) Cohort 1: Subjects were administered with a starting dose of 1.0 mg once weekly for 4 weeks. If the treatment was well tolerated*, the dose was adjusted to 2.0 mg, and was administered once weekly for 4 weeks. If the treatment was well tolerated*, the dose was adjusted to 3.0 mg, and was administered once weekly for 4 weeks. (ascending at a rate of 1 mg/4 weeks to the target dose).
Cohort 2: Subjects were administered with a starting dose of 1.5 mg once weekly for 4 weeks. If the treatment was well tolerated*, the dose was adjusted to 3.0 mg, and was administered once weekly for 4 weeks. If the treatment was well tolerated*, the dose was adjusted to 4.5 mg, and was administered once weekly for 4 weeks (ascending at a rate of 1.5 mg/4 weeks to the target dose).
Cohort 3: Treatment in cohort 3 was started when the 4-week treatment at 1.5 mg was completed and well tolerated in the subjects in cohort 2: if 1.5 mg was not tolerated in cohort 2, 2.0 mg and higher doses were not investigated in cohort 3. In this cohort, subjects were administered with a starting dose of 2.0 mg once weekly for 4 weeks. If the treatment was well tolerated*, the dose was adjusted to 4.0 mg, and was administered once weekly for 4 weeks. If the treatment was well tolerated*, the dose was adjusted to 6.0 mg, and was administered once weekly for 4 weeks. (ascending at a rate of 2 mg/4 weeks to the target dose).
For patients with obesity or overweight: By Mar. 15, 2021, 36 subjects were enrolled and 36 were included in the analysis. […] Only 2 patients in cohort 1 had mild urticaria. […] The gastrointestinal events occurred at a higher rate in the treatment group than in the placebo group, which complies with the mechanism of action of the drug.

[5] = test system: patients with diabetes; test: Safety assessment in patients with type 2 diabetes (12-week dose escalation); type: in vivo, human
Experimental: as §1
(§3) In this study, the enrollment of 42 patients with type 2 diabetes with uncontrolled glycosylated hemoglobin despite at least 2 months of lifestyle intervention or treatment with a stable dose of metformin (≥1000 mg/day or the maximum tolerated dose). Three cohorts were included in this study: cohort 1 (n=14), cohort 2 (n=14), and cohort 3 (n=14). Subjects in each cohort were randomized in an 8:4:2 ratio into the mazdutide treatment group (n=8), the placebo group (n=4), and the dulaglutide 1.5 mg treatment group (n=2). In cohorts 1, 2, and 3, the active control drug, dulaglutide, was administered at 1.5 mg QW for 12 weeks, and the dosing regimens for mazdutide and placebo are described below:
as §2
(§4) Cohort 2: Subjects were administered with a starting dose of 1.5 mg once weekly for 4 weeks.
If the treatment was well tolerated*, the dose was adjusted to 3.0 mg, and was administered once weekly for 4 weeks. If 3.0 mg was not well tolerated but still met the tolerance criteria, the next dose was investigated in cohort 2 (backup 1): if the dose was well tolerated, the study proceeded to 4.5 mg. The treatment was given once weekly for 4 weeks, if 4.5 mg was not well tolerated but still met the tolerance criteria, the next dose was investigated in cohort 2 (backup 2). (ascending at a rate of 1.5 mg/4 weeks to the target dose).
Cohort 2 (backup 2): If 4.5 mg was not tolerated, the treatment should be discontinued for 1 week and resumed at the dose of 3.75 mg for 2 weeks until the end of study. […]

[6] = test system: uric acid; test: Change in uric acid from baseline in subjects with type 2 diabetes; type: in vivo, human; details: 1.5 mg QW for 12 weeks, day 85 post-dose vs baseline, N = 6
Experimental: FIG. 3 illustrates the change in uric acid from baseline after administration in subjects with diabetes.
as §3, §2, §4
If the treatment was well tolerated*, the dose was adjusted to 3.0 mg, and was administered once weekly for 4 weeks. […]

In the case of `CC(C)C[C@H](NC(=O)[C@H](CC(C)C)NC(=O)[C@H](Cc1c[nH]c2ccccc12)NC(=O)[C@H](CCC(=O)O)NC(=O)[C@@H](NC(=O)[C@H](Cc1ccccc1)NC(=O)[C@H](CCC(=O)O)NC(=O)[C@H](CCCCNC(=O)COCCOCCNC(=O)COCCOCCNC(=O)CC[C@H](NC(=O)CCCCCCCCCCCCCCCCCCC(=O)O)C(=O)O)NC(=O)[C@H](C)NC(=O)[C@H](CCCCN)NC(=O)[C@H](CCCCN)NC(=O)[C@H](CCC(=O)O)NC(=O)[C@H](CC(=O)O)NC(=O)[C@H](CC(C)C)NC(=O)[C@H](Cc1ccc(O)cc1)NC(=O)[C@H](CCCCN)NC(=O)[C@H](CO)NC(=O)[C@H](Cc1ccc(O)cc1)NC(=O)[C@H](CC(=O)O)NC(=O)[C@H](CO)NC(=O)[C@@H](NC(=O)[C@H](Cc1ccccc1)NC(=O)[C@@H](NC(=O)CNC(=O)[C@H](CCC(N)=O)NC(=O)C(C)(C)NC(=O)[C@@H](N)Cc1c[nH]cn1)[C@@H](C)O)[C@@H](C)O)C(C)C)C(=O)N[C@@H](CCC(=O)O)C(=O)NCC(=O)NCC(=O)N1CCC[C@H]1C(=O)N[C@@H](CO)C(=O)N[C@@H](CO)C(=O)NCC(N)=O` [mazdutide], the tolerability ([1]; healthy subjects, dose ascended to 2.5 mg) is reported as “tolerated”, the “subjects with gastrointestinal-related AEs (mainly nausea and vomiting)” value ([1]; healthy subjects, dose ascended to 5 mg) is reported as 6 subjects and the “maximum tolerated dose (MTD) for single-dose administration” value ([1]; healthy subjects, single ascending doses 0.03-5.0 mg) is reported as 2.5 mg. The safety and tolerability ([1]; single-dose and multi-dose escalation studies in healthy populations) was “good safety and tolerability”, the solubility [2] was no less than 10000 µg/mL and the Stability [3] was “The drug substance is stable at ≤−20 °C”. The SAEs [4] was “no SAEs”, the acute pancreatitis [4] was “no acute pancreatitis” and the “discontinuation or withdrawal due to AEs” value [4] was “no discontinuation or withdrawal due to AEs”. The “dose escalation termination-related AEs” value [4] was “no dose escalation termination-related AEs”, the hypoglycemia events [4] was “no hypoglycemia events” and the severe adverse events [4] was “no severe adverse events”. The “patients with mild urticaria” value ([4]; cohort 1 (1 mg-2 mg-3 mg)) was 2 patients, the “overall safety and tolerance” value ([4]; sc once weekly, 12 weeks) was “good overall safety and tolerance” and the “anorexia rate of occurrence” value ([4]; treatment group) was 29.2%. The “diarrhea rate of occurrence” value ([4]; treatment group) was 25%, the “nausea rate of occurrence” value ([4]; treatment group) was 16.7% and the “Gastrointestinal adverse events rate” value ([4]; treatment group, 15/24 cases) was 62.5%. The average heart rate ([4]; versus placebo group) was “increase in average heart rate over the placebo group”, the “acute pancreatitis, severe hypoglycemia, allergic reaction or injection site reaction” value [5] was “no acute pancreatitis, severe hypoglycemia, allergic reaction or injection site reaction” and the “dose escalation termination-related AEs” value [5] was “no dose escalation termination-related AEs”. The “overall safety and tolerance” value ([5]; sc once weekly, 12 weeks) was “good overall safety and tolerance”.

With Dulaglutide the “Uric acid Mean of change” value [6] was 16.67 µmol/L.
